Laboratory results from ChEMBL document CHEMBL1201862, “PubChem BioAssay data set” (2004).
Each block holds one compound with its values, some of them ahead of it. The source made the active and inactive calls.

Assays:
[1] = target: RAC-gamma serine/threonine-protein kinase (Homo sapiens, UniProt Q9Y243); type: functional
[2] = target: Protein kinase C delta type (Homo sapiens, UniProt Q05655); type: functional
[3] = target: Serine/threonine-protein kinase D2 (Homo sapiens, UniProt Q9BZL6); type: functional;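 note: measured against PRKD2 as one member of a kinome-wide kinase profiling panel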
[4] = target: Ribosomal protein S6 kinase beta-1 (Homo sapiens, UniProt P23443); type: functional;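 note: measured as one member of a kinome-wide profiling panel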
Chain of Ribosomal protein S6 kinase beta-1 (P23443 whole entry): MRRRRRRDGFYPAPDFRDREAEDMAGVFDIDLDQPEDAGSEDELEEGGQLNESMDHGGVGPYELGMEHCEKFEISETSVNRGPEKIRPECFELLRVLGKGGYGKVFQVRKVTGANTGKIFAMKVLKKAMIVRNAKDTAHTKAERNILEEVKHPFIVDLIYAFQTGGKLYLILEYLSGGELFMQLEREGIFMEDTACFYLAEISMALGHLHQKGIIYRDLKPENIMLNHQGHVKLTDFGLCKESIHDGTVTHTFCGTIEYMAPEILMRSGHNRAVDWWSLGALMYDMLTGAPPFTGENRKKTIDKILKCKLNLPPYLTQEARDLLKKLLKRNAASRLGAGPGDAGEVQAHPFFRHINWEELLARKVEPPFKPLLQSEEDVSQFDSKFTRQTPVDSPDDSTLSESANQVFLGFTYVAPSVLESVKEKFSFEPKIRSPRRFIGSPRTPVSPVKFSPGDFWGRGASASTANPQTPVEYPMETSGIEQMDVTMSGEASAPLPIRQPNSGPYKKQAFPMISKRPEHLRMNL

[5] = target: Rho-associated protein kinase 2 (Homo sapiens, UniProt O75116); type: functional
[6] = target: Serine/threonine-protein kinase PAK 1 (Homo sapiens, UniProt Q13153); type: functional
[7] = target: LIM domain kinase 1 (Homo sapiens, UniProt P53667); experiment: Navigating the Kinome. Panel member name: LIMK1; type: functional
[8] = target: MAP/microtubule affinity-regulating kinase 3 (Homo sapiens, UniProt P27448); type: functional;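 note: MARK3 affinity measured as one member of a kinome panel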
[9] = target: Insulin receptor (Homo sapiens, UniProt P06213); type: functional;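 note: insulin receptor kinase tested as one member of a kinome-wide kinase panel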
[10] = target: Mitogen-activated protein kinase 13 (Homo sapiens, UniProt O15264); type: functional
[11] = target: Protein kinase C gamma type (Homo sapiens, UniProt P05129); type: functional
[12] = target: Hepatocyte growth factor receptor (Homo sapiens, UniProt P08581); type: functional;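 note: kinase panel profiling across the kinome, with MET as the panel member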
[13] = target: Inhibitor of nuclear factor kappa-B kinase subunit alpha (Homo sapiens, UniProt O15111); type: functional
[14] = target: Receptor tyrosine-protein kinase erbB-2 (Homo sapiens, UniProt P04626); experiment: Navigating the Kinome. Panel member name: ERBB2; type: functional
Chain of Receptor tyrosine-protein kinase erbB-2 (P04626 whole entry): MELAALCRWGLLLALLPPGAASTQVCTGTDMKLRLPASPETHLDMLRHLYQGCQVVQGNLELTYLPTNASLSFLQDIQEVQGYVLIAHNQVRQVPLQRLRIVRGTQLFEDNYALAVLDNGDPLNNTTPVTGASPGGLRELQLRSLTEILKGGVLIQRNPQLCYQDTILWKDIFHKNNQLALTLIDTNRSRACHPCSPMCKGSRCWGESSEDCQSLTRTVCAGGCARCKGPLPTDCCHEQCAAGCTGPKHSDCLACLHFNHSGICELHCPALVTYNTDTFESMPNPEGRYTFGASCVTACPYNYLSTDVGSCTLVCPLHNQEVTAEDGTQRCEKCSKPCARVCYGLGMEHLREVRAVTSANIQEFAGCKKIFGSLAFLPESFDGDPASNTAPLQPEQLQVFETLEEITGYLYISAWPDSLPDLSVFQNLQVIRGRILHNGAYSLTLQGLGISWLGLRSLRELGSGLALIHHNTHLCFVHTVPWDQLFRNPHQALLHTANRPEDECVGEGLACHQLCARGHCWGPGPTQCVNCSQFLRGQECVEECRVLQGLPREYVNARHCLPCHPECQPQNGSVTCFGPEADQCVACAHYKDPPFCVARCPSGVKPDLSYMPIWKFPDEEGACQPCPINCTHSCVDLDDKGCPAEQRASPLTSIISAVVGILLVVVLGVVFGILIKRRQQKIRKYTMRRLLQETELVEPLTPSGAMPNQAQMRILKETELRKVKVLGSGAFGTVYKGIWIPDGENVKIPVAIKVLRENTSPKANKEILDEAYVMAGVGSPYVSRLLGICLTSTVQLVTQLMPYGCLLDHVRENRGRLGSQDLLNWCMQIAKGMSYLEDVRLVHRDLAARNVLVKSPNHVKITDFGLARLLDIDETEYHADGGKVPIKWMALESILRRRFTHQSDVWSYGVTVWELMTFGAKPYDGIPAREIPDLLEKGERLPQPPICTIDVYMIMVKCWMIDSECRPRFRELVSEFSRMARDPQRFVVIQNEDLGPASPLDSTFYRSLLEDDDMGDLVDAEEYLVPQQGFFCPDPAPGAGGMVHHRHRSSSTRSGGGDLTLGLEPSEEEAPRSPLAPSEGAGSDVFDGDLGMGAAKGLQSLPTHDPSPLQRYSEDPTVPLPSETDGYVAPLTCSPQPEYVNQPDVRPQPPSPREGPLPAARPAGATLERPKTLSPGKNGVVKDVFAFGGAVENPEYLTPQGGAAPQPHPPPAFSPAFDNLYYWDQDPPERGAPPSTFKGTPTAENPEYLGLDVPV

[15] = target: MAP kinase-activated protein kinase 3 (Homo sapiens, UniProt Q16644); type: functional;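 note: value comes from a kinome-wide profiling panel in which MAPKAPK3 is one of the panel members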
[16] = target: Cyclin-dependent kinase 5 (Homo sapiens, UniProt Q00535); type: functional;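 note: CDK5 measured as one member of a kinase profiling panel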
Chain of Cyclin-dependent kinase 5 (Q00535 whole entry): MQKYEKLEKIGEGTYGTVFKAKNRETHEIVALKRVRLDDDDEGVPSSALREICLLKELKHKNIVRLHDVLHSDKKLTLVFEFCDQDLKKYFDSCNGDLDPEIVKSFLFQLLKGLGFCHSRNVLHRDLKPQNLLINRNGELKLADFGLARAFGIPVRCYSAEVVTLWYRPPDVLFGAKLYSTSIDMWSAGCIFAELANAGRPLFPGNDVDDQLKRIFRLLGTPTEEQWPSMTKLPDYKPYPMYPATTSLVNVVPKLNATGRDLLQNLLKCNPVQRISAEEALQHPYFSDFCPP

[17] = target: Ephrin type-A receptor 2 (Homo sapiens, UniProt P29317); type: functional;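 note: EPHA2 tested as one member of a kinome-wide kinase panel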
[18] = target: Mitogen-activated protein kinase 1 (Homo sapiens, UniProt P28482); type: functional
[19] = target: Interleukin-1 receptor-associated kinase 4 (Homo sapiens, UniProt Q9NWZ3); type: functional
Chain of Interleukin-1 receptor-associated kinase 4 (Q9NWZ3 whole entry): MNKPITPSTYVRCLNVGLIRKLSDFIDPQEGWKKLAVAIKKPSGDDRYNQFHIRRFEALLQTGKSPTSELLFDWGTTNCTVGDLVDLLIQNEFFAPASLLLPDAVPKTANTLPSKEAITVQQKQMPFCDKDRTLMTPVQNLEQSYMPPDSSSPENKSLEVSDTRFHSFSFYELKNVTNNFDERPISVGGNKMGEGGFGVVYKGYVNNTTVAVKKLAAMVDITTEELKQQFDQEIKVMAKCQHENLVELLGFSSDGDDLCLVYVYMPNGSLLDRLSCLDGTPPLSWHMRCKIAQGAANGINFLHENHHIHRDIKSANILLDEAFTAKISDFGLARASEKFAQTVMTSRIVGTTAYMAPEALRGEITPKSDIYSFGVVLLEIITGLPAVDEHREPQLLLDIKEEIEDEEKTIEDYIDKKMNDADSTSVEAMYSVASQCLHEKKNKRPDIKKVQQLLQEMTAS

[20] = target: Vascular endothelial growth factor receptor 3 (Homo sapiens, UniProt P35916); type: functional;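 note: value from a kinome-wide profiling panel, with FLT4 as the panel member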
[21] = target: Calcium/calmodulin-dependent protein kinase type 1 (Homo sapiens, UniProt Q14012); type: functional
Chain of Calcium/calmodulin-dependent protein kinase type 1 (Q14012 whole entry): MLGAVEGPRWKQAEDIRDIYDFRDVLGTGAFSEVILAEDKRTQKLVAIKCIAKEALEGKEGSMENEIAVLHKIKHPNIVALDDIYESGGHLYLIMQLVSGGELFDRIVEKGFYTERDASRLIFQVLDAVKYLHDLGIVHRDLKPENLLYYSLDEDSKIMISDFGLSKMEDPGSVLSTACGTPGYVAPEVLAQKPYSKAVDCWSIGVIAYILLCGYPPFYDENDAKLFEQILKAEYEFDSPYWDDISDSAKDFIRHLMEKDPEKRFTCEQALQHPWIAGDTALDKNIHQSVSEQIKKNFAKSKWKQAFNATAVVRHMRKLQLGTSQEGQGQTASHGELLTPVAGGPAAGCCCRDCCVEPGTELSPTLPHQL

[22] = target: Cyclin-dependent kinase 1 (Homo sapiens, UniProt P06493); type: functional;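 note: Kinome-wide panel profiling, with the target listed as panel member CDC2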
[23] = target: Serine/threonine-protein kinase pim-2 (Homo sapiens, UniProt Q9P1W9); type: functional;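 note: value comes from a broad kinase panel profiling study in which PIM2 was one of the panel members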
Chain of Serine/threonine-protein kinase pim-2 (Q9P1W9 whole entry): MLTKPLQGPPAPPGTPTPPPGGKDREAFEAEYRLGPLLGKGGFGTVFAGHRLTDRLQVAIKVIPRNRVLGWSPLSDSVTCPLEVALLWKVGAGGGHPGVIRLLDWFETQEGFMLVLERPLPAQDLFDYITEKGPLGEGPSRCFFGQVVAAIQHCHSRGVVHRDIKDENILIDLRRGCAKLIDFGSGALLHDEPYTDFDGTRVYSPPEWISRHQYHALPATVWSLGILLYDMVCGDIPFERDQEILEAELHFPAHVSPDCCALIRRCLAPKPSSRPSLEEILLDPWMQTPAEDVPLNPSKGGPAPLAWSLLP

[24] = target: 3-phosphoinositide-dependent protein kinase 1 (Homo sapiens, UniProt O15530); type: functional;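 note: value comes from the Navigating the Kinome panel, PDPK1 member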
[25] = target: Fibroblast growth factor receptor 3 (Homo sapiens, UniProt P22607); type: functional
[26] = target: Mitogen-activated protein kinase 12 (Homo sapiens, UniProt P53778); type: functional;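 note: measured as one member of a kinome-wide kinase profiling panel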
[27] = target: Epidermal growth factor receptor (Homo sapiens, UniProt P00533)
Chain of Epidermal growth factor receptor (P00533 whole entry): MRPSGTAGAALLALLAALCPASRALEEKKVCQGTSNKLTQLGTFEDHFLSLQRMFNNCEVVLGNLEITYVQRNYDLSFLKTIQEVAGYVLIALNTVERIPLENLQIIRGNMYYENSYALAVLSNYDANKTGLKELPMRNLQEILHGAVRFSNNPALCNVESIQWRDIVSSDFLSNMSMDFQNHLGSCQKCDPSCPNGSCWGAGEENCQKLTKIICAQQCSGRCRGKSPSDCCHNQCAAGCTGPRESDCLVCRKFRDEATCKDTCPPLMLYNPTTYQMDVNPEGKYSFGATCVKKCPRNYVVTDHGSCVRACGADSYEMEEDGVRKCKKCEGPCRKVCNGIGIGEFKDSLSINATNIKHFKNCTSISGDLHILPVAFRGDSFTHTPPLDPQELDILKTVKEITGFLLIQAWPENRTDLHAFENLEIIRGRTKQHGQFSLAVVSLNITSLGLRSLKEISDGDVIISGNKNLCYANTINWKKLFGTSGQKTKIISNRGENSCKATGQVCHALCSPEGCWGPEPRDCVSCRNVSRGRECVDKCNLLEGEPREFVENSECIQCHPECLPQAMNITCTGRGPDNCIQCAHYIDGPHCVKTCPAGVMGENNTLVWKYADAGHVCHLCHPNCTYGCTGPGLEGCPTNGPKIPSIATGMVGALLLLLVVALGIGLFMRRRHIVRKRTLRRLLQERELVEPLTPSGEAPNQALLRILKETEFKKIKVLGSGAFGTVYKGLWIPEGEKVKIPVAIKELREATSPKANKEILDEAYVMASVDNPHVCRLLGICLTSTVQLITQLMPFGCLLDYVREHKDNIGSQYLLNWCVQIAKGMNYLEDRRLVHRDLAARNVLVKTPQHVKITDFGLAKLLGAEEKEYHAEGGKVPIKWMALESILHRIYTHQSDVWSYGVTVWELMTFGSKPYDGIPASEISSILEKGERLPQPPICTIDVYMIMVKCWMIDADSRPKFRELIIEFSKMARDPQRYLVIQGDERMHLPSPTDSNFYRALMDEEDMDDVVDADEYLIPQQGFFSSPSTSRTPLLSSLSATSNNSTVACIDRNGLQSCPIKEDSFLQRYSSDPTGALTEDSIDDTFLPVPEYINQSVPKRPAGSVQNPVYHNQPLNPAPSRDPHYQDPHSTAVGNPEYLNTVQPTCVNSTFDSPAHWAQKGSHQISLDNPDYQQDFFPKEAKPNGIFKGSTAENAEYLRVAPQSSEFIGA

[28] = target: Dual specificity protein kinase CLK2 (Homo sapiens, UniProt P49760); type: functional
[29] = target: Dual specificity mitogen-activated protein kinase kinase 1 (Homo sapiens, UniProt Q02750); experiment: Navigating the Kinome. Panel member name: MAP2K1; type: functional
[30] = target: Serine/threonine-protein kinase TBK1 (Homo sapiens, UniProt Q9UHD2); experiment: Navigating the Kinome. Panel member name: TBK1; type: functional
[31] = target: ALK tyrosine kinase receptor (Homo sapiens, UniProt Q9UM73); type: functional;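 note: ALK tested as one member of a kinase panel screen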
[32] = target: Tyrosine-protein kinase receptor TYRO3 (Homo sapiens, UniProt Q06418); type: functional;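 note: TYRO3 value obtained as one member of a kinome-wide profiling panel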
[33] = target: Serine/threonine-protein kinase D3 (Homo sapiens, UniProt O94806); type: functional;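 note: determined within a kinase panel screen, with PRKCN as the panel member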
[34] = target: Serine/threonine-protein kinase 17A (Homo sapiens, UniProt Q9UEE5); type: functional
[35] = target: Tyrosine-protein kinase Lck (Homo sapiens, UniProt P06239); type: functional;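 note: lck was assayed as one member of a kinase panel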
[36] = target: Tyrosine-protein kinase BTK (Homo sapiens, UniProt Q06187); type: functional
[37] = target: Mitogen-activated protein kinase kinase kinase kinase 2 (Homo sapiens, UniProt Q12851); type: functional;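 note: measured as one member of a kinome-wide kinase panel, with MAP4K2 as the panel entry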
[38] = target: Activated CDC42 kinase 1 (Homo sapiens, UniProt Q07912); experiment: Navigating the Kinome. Panel member name: ACK1; type: functional
[39] = target: Platelet-derived growth factor receptor beta (Homo sapiens, UniProt P09619); type: functional;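 note: value comes from a kinome panel, with PDGFRB tested as one panel member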
[40] = target: Dual specificity tyrosine-phosphorylation-regulated kinase 1B (Homo sapiens, UniProt Q9Y463); experiment: Navigating the Kinome. Panel member name: DYRK1B; type: functional
Chain of Dual specificity tyrosine-phosphorylation-regulated kinase 1B (Q9Y463 whole entry): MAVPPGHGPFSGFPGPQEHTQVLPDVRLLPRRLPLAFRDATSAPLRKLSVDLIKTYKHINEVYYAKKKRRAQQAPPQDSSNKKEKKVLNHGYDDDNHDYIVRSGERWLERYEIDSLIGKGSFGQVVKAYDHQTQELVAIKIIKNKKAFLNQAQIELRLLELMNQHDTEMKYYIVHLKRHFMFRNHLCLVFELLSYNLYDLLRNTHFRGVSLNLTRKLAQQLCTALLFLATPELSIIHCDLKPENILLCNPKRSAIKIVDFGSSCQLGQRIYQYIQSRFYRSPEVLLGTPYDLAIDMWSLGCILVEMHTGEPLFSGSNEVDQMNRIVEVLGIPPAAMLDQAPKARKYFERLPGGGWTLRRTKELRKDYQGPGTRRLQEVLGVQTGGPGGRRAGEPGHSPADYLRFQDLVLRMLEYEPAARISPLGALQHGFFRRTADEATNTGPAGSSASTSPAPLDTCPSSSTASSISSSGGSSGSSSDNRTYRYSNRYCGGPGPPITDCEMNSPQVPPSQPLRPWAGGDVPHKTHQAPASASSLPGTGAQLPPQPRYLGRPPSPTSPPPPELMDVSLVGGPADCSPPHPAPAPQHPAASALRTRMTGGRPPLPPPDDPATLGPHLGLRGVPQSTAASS

[41] = target: Platelet-derived growth factor receptor alpha (Homo sapiens, UniProt P16234); experiment: Navigating the Kinome. Panel member name: PDGFRA; type: functional
[42] = target: Leucine-rich repeat serine/threonine-protein kinase 2 (Homo sapiens, UniProt Q5S007); type: functional;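 note: value from a broad kinome-wide panel profiling study in which LRRK2 was one of the kinases tested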
[43] = target: Cyclin-dependent kinase 8 (Homo sapiens, UniProt P49336); experiment: Navigating the Kinome. Panel member name: CDK8; type: functional
[44] = target: Dual specificity protein kinase CLK4 (Homo sapiens, UniProt Q9HAZ1); type: functional
[45] = target: Calcium/calmodulin-dependent protein kinase type II subunit alpha (Homo sapiens, UniProt Q9UQM7); experiment: Navigating the Kinome. Panel member name: CAMK2A; type: functional
[46] = target: Leukocyte tyrosine kinase receptor (Homo sapiens, UniProt P29376); experiment: Navigating the Kinome. Panel member name: LTK; type: functional
[47] = target: Mitogen-activated protein kinase 14 (Homo sapiens, UniProt Q16539); type: functional;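 note: part of a kinome-wide panel, MAPK14 entry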

Compound: NC(COc1cncc(-c2cc3ccncc3s2)c1)Cc1c[nH]c2ccccc12 (configuration not stated)
Ki [1]: 25.1 nM (active)
Ki [2]: 50.1 nM (active)
Ki [3]: 316 nM (active)
Ki [4]: 6.31 nM (active)
Ki [5]: 10 nM (active)
Ki [6]: 794 nM (active)
Ki [7]: 794 nM (active)
Ki [8]: 398 nM (active)
Ki [9]: > 5010 nM (inactive)
Ki [10]: 7940 nM (active)
Ki [11]: 398 nM (active)
Ki [12]: > 3160 nM (inactive)
Ki [13]: > 3980 nM (inactive)
Ki [14]: > 1580 nM (inactive)
Ki [15]: > 10000 nM (inactive)
Ki [16]: 316 nM (active)
Ki [17]: > 3160 nM (inactive)
Ki [18]: 251 nM (active)
Ki [19]: 1580 nM (active)
Ki [20]: 100 nM (active)
Ki [21]: 3160 nM (active)
Ki [22]: 158 nM (active)
Ki [23]: > 1580 nM (inactive)
Ki [24]: 251 nM (active)
Ki [25]: > 2000 nM (inactive)
Ki [26]: 2000 nM (active)
Ki [27]: 1580 nM (active)

Ki [28]: 39.8 nM (active)
Ki [29]: 200 nM (active)
Ki [30]: 2000 nM (active)
Ki [31]: 1580 nM (active)
Ki [32]: > 3160 nM (inactive)
Ki [33]: 15.8 nM (active)
Ki [34]: 126 nM (active)
Ki [35]: 5010 nM (active)
Ki [36]: > 6310 nM (inactive)
Ki [37]: 316 nM (active)
Ki [38]: > 3980 nM (inactive)
Ki [39]: 1000 nM (active)
Ki [40]: 25.1 nM (active)
Ki [41]: > 2510 nM (inactive)
Ki [42]: 15.8 nM (active)
Ki [43]: 15.8 nM (active)
Ki [44]: 2.51 nM (active)
Ki [45]: 398 nM (active)
Ki [46]: 501 nM (active)
Ki [47]: > 3980 nM (inactive)
Compound: CN(C)C1CCC(Nc2nc(Cl)cc(-c3c[nH]c4ncccc34)n2)CC1 (configuration not stated)
